From the NIST ThermoML archive (doi:10.1021/je500857w)

Test: xn = mol fraction of the nth substance listed
Conditions: Gas, Vibrating wire viscometry, x1 = 0.949

C [methane] + CCC
Conditions	viscosity [mPa·s]
199.92 K, 10367 kPa	0.03814
200.6 K, 13841 kPa	0.04236
202.32 K, 17279 kPa	0.04452
203.24 K, 24182 kPa	0.05008
203.36 K, 20735 kPa	0.04739
203.36 K, 27628 kPa	0.05294
203.43 K, 25922 kPa	0.0511
204.19 K, 31114 kPa	0.05549
255.51 K, 24135 kPa	0.03085
255.57 K, 31095 kPa	0.03577
255.59 K, 25902 kPa	0.03221
255.59 K, 27592 kPa	0.03348
255.62 K, 20701 kPa	0.02791
311.08 K, 25869 kPa	0.02348
311.11 K, 31037 kPa	0.0265
311.12 K, 20946 kPa	0.02061
311.13 K, 24419 kPa	0.02279
311.13 K, 27584 kPa	0.02453
366.88 K, 24192 kPa	0.01997
366.89 K, 25926 kPa	0.02064
366.89 K, 27645 kPa	0.02138
366.89 K, 31144 kPa	0.0226
423.62 K, 24191 kPa	0.01944
423.63 K, 25937 kPa	0.01988
423.63 K, 27640 kPa	0.02032
423.63 K, 31097 kPa	0.02136
